Biological target: T1, human APJ receptor (Homo sapiens, UniProt P35414)
T1 construct: expressed in transfected cells; host or cells: HEK293
T1 sequence (P35414 1-380): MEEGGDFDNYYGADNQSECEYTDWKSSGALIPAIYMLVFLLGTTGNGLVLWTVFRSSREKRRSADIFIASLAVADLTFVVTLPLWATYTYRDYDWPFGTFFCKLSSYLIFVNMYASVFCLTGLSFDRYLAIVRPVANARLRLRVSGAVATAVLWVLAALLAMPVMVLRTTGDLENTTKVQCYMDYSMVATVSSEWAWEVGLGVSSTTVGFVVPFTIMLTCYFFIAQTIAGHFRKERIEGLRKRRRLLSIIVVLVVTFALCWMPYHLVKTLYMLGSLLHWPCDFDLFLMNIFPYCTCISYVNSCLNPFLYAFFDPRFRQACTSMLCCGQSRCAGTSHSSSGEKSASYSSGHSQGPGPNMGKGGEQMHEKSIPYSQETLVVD
Assay: Intracellular cAMP Accumulation Assay (APJ hcAMP, HTRF)
Format: cell-based
Details: not given
In short: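 Stably transfected HEK293 cells (5,000/well) incubated 30 min at room temperature with serially diluted compound, […] and 2 μM forskolin. cAMP measured by HTRF after 60 min with detection reagents, quantified against a cAMP standard curve; EC50 from variable-slope sigmoidal fit of inhibition of forskolin-stimulated cAMP.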

EC50 [nM]	Compound
0.01 to 10	CCCCc1nc(=O)c(C(=O)N2CCC(c3ccc(Cl)cc3)C2)c(O)n1-c1c(OC)cccc1OC (single isomer, unassigned) [Example 46, 2-butyl-5-[3-(4-chlorophenyl)pyrrolidine-1-carbonyl]-1-(2,6-dimethoxyphenyl)-6-hydroxy-1,4-dihydropyrimidin-4-one]

Same assay, conditions: human APJ, cAMP accumulation; potency range class; read-out: hAPJ cAMP EC50 Potency range

EC50 [nM]	Compound
0.01 to 10	CCc1cccc(CC)c1-n1c(-c2ccn(C)n2)nc(=O)c(C(=O)N2CCC(c3ccc(F)cc3)C2)c1O (single isomer, unassigned) [Example 272, 1-(2,6-diethylphenyl)-5-[3-(4-fluorophenyl)pyrrolidine-1-carbonyl]-6-hydroxy-2-(1-methyl-1H-pyrazol-3-yl)-1,4-dihydropyrimidin-4-one]
0.01 to 10	CC[C@@H](c1ccccc1)n1c(-c2nc(C)cs2)nc(=O)c(C(=O)N2CCC(c3ccccc3F)C2)c1O (single isomer, unassigned) [Example 324]
10 to 100	CCCc1nc(=O)c(C(=O)N2CC[C@@H](c3ccccc3)C2)c(O)n1[C@@H](COC)c1ccccc1 [Example 330, 6-hydroxy-3-[(1R)-2-methoxy-1-phenylethyl]-5-[(3S)-3-phenylpyrrolidine-l-carbonyl]-2-propyl-3,4-dihydropyrimidin-4-one]
0.01 to 10	COc1cccc(OC)c1-n1c(-c2cc(C)ccn2)nc(=O)c(C(=O)N2CCC(c3ccccc3F)C2)c1O (single isomer, unassigned) [Example 239, 1-(2,6-dimethoxyphenyl)-5-[3-(2-fluorophenyl)pyrrolidine-1-carbonyl]-6-hydroxy-2-(4-methylpyridin-2-yl)-1,4-dihydropyrimidin-4-one]
0.01 to 10	CCCCc1nc(=O)c(C(=O)N2CCC(c3ccccc3C#N)C2)c(O)n1-c1c(OC)cccc1OC (single isomer, unassigned) [Example 364, 2-(1-(2-butyl-1-(2,6-dimethoxyphenyl)-6-hydroxy-4-oxo-1,4-dihydropyrimidine-5-carbonyl)pyrrolidin-3-yl)benzonitrile]
100 to 300	CCc1cccc(CC)c1-n1c(COC(C)C)nc(O)c(C(=O)N2CCC(c3ccc(Cl)nc3)CC2)c1=O [Example 222, 5-[4-(6-chloropyridin-3-yl)piperidine-1-carbonyl]-3-(2,6-diethylphenyl)-6-hydroxy-2-[(propan-2-yloxy)methyl]-3,4-dihydropyrimidin-4-one]

Same assay, conditions: human APJ, intracellular cAMP accumulation; read-out: hAPJ cAMP EC50 Potency range

Compound	EC50 [nM]
CCOCc1nc(=O)c(C(=O)N2CCC(c3ccc(F)cc3)C2)c(O)n1-c1c(OC)cccc1OC (single isomer, unassigned) [Example 81, 1-(2,6-dimethoxyphenyl)-2-(ethoxymethyl)-5-[3-(4-fluorophenyl)pyrrolidine-1-carbonyl]-6-hydroxy-1,4-dihydropyrimidin-4-one]	0.01 to 10
COc1cccc(OC)c1-n1c(CCC2CC2)nc(=O)c(C(=O)N2CCC(c3ccc(Cl)cn3)C2)c1O (single isomer, unassigned) [Example 171, 5-[3-(5-chloropyridin-2-yl)pyrrolidine-1-carbonyl]-2-(2-cyclopropylethyl)-1-(2,6-dimethoxyphenyl)-6-hydroxy-1,4-dihydropyrimidin-4-one]	0.01 to 10
CCCCc1nc(=O)c(C(=O)N2CC[C@H](c3ccccc3)C2)c(O)n1-c1c(OC)ncnc1OC [Example 113, 2-butyl-3-(4,6-dimethoxypyrimidin-5-yl)-6-hydroxy-5-[(3R)-3-phenylpyrrolidine-1-carbonyl]-3,4-dihydropyrimidin-4-one]	0.01 to 10
CCCCc1nc(=O)c(C(=O)N2Cc3ccccc3C2)c(O)n1-c1c(OC)cccc1OC [Example 66, 2-butyl-5-(2,3-dihydro-1H-isoindole-2-carbonyl)-1-(2,6-dimethoxyphenyl)-6-hydroxy-1,4-dihydropyrimidin-4-one]	0.01 to 10
CCCCc1nc(=O)c(C(=O)N2Cc3cccnc3C2)c(O)n1-c1c(OC)cccc1OC [Example 61, 2-butyl-1-(2,6-dimethoxyphenyl)-6-hydroxy-5-{5H,6H,7H-pyrrolo[3,4-b]pyridine-6-carbonyl}-1,4-dihydropyrimidin-4-one]	10 to 100
COc1cccc(OC)c1-n1c(COC2CC2)nc(=O)c(C(=O)N2CCC(c3ccccc3Cl)C2)c1O (single isomer, unassigned) [Example 22, 5-(3-(2-chlorophenyl)pyrrolidine-1-carbonyl)-2-(cyclopropoxymethyl)-1-(2,6-dimethoxyphenyl)-6-hydroxypyrimidin-4(1H)-one]	0.01 to 10
CC[C@@H](c1cc(F)cc(F)c1)n1c(-c2cnn(C)c2)nc(=O)c(C(=O)N2CCC(c3ncc(F)cc3F)C2)c1O (single isomer, unassigned) [Example 188]	0.01 to 10
COc1cccc(OC)c1-n1c(COC(C)C)nc(=O)c(C(=O)N2CCC(c3ccc(F)cc3)C2)c1O (single isomer, unassigned) [Example 102, 1-(2,6-dimethoxyphenyl)-5-[3-(4-fluorophenyl)pyrrolidine-1-carbonyl]-6-hydroxy-2-[(propan-2-yloxy)methyl]-1,4-dihydropyrimidin-4-one]	0.01 to 10
COc1cccc(OC)c1-n1c(COC(C)(C)C)nc(=O)c(C(=O)N2CCC(c3ccccc3Cl)C2)c1O (single isomer, unassigned) [Example 42, 2-[(tert-butoxy)methyl]-5-[3-(2-chlorophenyl)pyrrolidine-1-carbonyl]-1-(2,6-dimethoxyphenyl)-6-hydroxy-1,4-dihydropyrimidin-4-one]	0.01 to 10
COc1cccc(OC)c1-n1c(CCC(C)C)nc(=O)c(C(=O)N2CC[C@@H](c3ccccc3)C2)c1O [Example 24, (S)-1-(2,6-dimethoxyphenyl)-6-hydroxy-2-isopentyl-5-(3-phenylpyrrolidine-1-carbonyl)pyrimidin-4(1H)-one]	0.01 to 10
COc1cccc(OC)c1-n1c(CCC2CC2)nc(=O)c(C(=O)N2CCC(c3ncc(Cl)cc3F)C2)c1O (single isomer, unassigned) [Example 176, 5-[3-(5-chloro-3-fluoropyridin-2-yl)pyrrolidine-1-carbonyl]-2-(2-cyclopropylethyl)-1-(2,6-dimethoxyphenyl)-6-hydroxy-1,4-dihydropyrimidin-4-one]	0.01 to 10
CCCCc1nc(=O)c(C(=O)N2CC[C@@H](OCc3ccccc3)C2)c(O)n1-c1c(OC)cccc1OC [Example 59, 5-[(3R)-3-(benzyloxy)pyrrolidine-1-carbonyl]-2-butyl-1-(2,6-dimethoxyphenyl)-6-hydroxy-1,4-dihydropyrimidin-4-one]	0.01 to 10
COc1cccc(OC)c1-n1c(CC2CC2)nc(=O)c(C(=O)N2CC[C@H](c3ccccc3)C2)c1O [Example 32, (R)-2-(cyclopropylmethyl)-3-(2,6-dimethoxyphenyl)-6-hydroxy-5-(3-phenylpyrrolidine-1-carbonyl)pyrimidin-4(3H)-one]	0.01 to 10
CCCCc1nc(=O)c(C(=O)N2CC[C@H](c3ccccc3)C2)c(O)n1[C@@H](C)c1ccccc1OC [Example 156, 2-butyl-6-hydroxy-3-[(1S)-1-(2-methoxyphenyl)ethyl]-5-[(3R)-3-phenylpyrrolidine-1-carbonyl]-3,4-dihydropyrimidin-4-one]	100 to 300
CCc1cccc(CC)c1-n1c(COC(C)C)nc(=O)c(C(=O)N2CC[C@H](c3ccccc3)C2)c1O [Example 17, (R)-3-(2,6-diethylphenyl)-6-hydroxy-2-(isopropoxymethyl)-5-(3-phenylpyrrolidine-1-carbonyl)pyrimidin-4(3H)-one]	0.01 to 10
COc1cccc(OC)c1-n1c(COC(C)C)nc(=O)c(C(=O)N2CCC(c3cccc(F)c3)C2)c1O (single isomer, unassigned) [Example 95, 1-(2,6-dimethoxyphenyl)-5-[3-(3-fluorophenyl)pyrrolidine-1-carbonyl]-6-hydroxy-2-[(propan-2-yloxy)methyl]-1,4-dihydropyrimidin-4-one]	0.01 to 10

More lines, now with the values ahead:

EC50 [nM]	Compound
0.01 to 10	CC[C@@H](c1cc(F)cc(F)c1)n1c(-c2cnn(C)c2)nc(=O)c(C(=O)N2CCC(c3ccc(Cl)cn3)C2)c1O (single isomer, unassigned) [Example 218]
0.01 to 10	CC[C@@H](c1cc(F)cc(F)c1)n1c(-c2ccn(C)n2)nc(=O)c(C(=O)N2CCC(c3cc(F)ccn3)C2)c1O (single isomer, unassigned) [Example 200]

Same assay, conditions: read-out: hAPJ cAMP EC50 Potency range

EC50 [nM]	Compound
0.01 to 10	CCCCc1nc(=O)c(C(=O)N2CCC(Oc3ccc(Cl)cc3)CC2)c(O)n1-c1c(OC)cccc1OC [Example 373, 2-butyl-5-(4-(4-chlorophenoxy)piperidine-1-carbonyl)-1-(2,6-dimethoxyphenyl)-6-hydroxypyrimidin-4(1H)-one]
0.01 to 10	CCOCc1nc(=O)c(C(=O)N2CCC(Oc3cc(F)ccc3Cl)CC2)c(O)n1-c1c(OC)cccc1OC [Example 378, 5-(4-(2-chloro-5-fluorophenoxy)piperidine-1-carbonyl)-1-(2,6-dimethoxyphenyl)-2-(ethoxymethyl)-6-hydroxypyrimidin-4(1H)-one]

Same assay, conditions: read-out: hAPJ cAMP EC50 Potency range; human APJ, intracellular cAMP accumulation

EC50 [nM]	Compound
0.01 to 10	CCCCc1nc(=O)c(C(=O)N2CCC(c3cccnc3)C2)c(O)n1-c1c(OC)cccc1OC (single isomer, unassigned) [Example 76, 2-butyl-1-(2,6-dimethoxyphenyl)-6-hydroxy-5-[3-(pyridin-3-yl)pyrrolidine-1-carbonyl]-1,4-dihydropyrimidin-4-one]
